Reference: patent US12331051B2 (priority 2021, dated 2025)

What was measured:
[1] = target: T1, Alpha 1A adrenergic receptor (Homo sapiens, UniProt P35348); test: Functional assay in HEK-293 cells (Ca2+ flux); format: cell-based
T1 construct: expressed in transfected cells; host or cells: HEK-293
T1 sequence (P35348 1-466): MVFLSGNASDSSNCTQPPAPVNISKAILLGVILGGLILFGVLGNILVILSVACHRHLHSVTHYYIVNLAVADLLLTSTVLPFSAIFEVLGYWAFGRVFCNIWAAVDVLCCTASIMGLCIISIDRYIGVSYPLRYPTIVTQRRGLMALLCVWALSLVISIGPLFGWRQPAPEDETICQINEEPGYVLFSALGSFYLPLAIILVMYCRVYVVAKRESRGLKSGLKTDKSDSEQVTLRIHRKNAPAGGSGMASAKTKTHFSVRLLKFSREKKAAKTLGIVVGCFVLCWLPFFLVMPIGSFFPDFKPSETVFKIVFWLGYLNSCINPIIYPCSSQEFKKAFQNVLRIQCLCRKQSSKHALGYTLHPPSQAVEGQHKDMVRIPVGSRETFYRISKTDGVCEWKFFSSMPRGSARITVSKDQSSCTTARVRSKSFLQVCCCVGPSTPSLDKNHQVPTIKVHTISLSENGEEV
Experimental: (§1) Neuro-receptor binding and functional effects of the “E559 polymorph” was examined by analyzing binding affinity [Ki (nM)], functional agonist activity [EC50 (nM)], and functional antagonist activity [IC50 (nM)] against a panel of key receptors in neurophysiological disorders. Binding and functional assays were performed at “E559 polymorph” concentrations of 0.0003, 0.003, 0.01, 0.03, 0.1, 0.3, 1, and 10 μM. In binding assays, cell membrane homogenates, expressing each receptor target, were incubated with the corresponding radio-ligand in absence or presence of several concentration of the “E559 polymorph” compound. The measurement of binding affinity of the “E559 polymorph” is represented in TABLE XIII by Ki (nM) which was calculated as percent inhibition of the binding of a radioactively labeled reference ligand at each receptor. In functional assays the HEK-293 cells expressing each receptor target were suspended in buffer and distribute in microplates and incubated for 30 minutes at room temperature or 37° C. in the presence of buffer alone (basal control), the reference agonist or antagonist, or the “E559 polymorph. Following incubation, the cells were lysed and the appropriate fluorescent probe (Ca2+ flux, cAMP, or IP1) were added for 60 minutes to measure the fluorescence transfer at the appropriate wavelength using a microplate reader. The cellular agonist effect (EC50) was calculated as a percent of control response to a known reference agonist and the cellular antagonist effect (IC50) was calculated as a percent inhibition of control reference agonist response for each receptor.

[2] = target: T2, Alpha 2A adrenergic receptor (Homo sapiens, UniProt P08913); test: Functional assay in HEK-293 cells (Ca2+ flux); format: cell-based
T2 construct: expressed in transfected cells; host or cells: HEK-293
T2 sequence (P08913 1-465): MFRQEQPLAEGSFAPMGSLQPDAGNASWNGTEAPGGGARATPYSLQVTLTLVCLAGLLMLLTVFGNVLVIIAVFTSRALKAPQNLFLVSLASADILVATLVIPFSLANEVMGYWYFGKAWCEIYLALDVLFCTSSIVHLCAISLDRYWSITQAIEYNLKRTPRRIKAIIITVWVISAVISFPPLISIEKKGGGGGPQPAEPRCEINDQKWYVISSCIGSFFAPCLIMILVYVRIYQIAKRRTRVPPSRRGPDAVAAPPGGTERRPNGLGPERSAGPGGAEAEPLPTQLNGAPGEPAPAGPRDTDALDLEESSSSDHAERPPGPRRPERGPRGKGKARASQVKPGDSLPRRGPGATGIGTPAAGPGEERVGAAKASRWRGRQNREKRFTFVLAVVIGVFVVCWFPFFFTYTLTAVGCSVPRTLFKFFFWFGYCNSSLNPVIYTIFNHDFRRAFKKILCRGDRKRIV
Experimental: as §1

[3] = target: T3, Serotonin 1A receptor (5-HT1AR) (Homo sapiens, UniProt P08908); test: Functional assay in HEK-293 cells (Ca2+ flux); format: cell-based
T3 construct: expressed in transfected cells; host or cells: HEK-293
T3 sequence (P08908 1-422): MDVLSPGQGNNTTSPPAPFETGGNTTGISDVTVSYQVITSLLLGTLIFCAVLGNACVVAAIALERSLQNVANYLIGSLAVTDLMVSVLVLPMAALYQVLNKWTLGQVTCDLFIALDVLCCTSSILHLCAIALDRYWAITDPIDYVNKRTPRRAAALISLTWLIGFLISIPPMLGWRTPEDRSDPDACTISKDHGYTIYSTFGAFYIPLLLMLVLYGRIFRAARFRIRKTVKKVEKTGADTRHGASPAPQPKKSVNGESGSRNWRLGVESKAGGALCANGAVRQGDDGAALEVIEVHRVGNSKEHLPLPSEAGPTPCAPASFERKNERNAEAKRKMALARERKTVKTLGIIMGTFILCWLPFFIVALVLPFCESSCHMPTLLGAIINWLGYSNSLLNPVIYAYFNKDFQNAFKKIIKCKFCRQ
Experimental: as §1

[4] = system: C57BL/6J mice; test: Chronic variable stress (CVS) mouse model, open field test and splash test; format: in vivo; details: for CVS induced decrease of time in center of open field: female mice
Experimental: The “polymorph HT compound” (from Example 1) was tested for its anti-depression/anxiety activity in the chronic variable stress (CVS) mouse model as assessed by a self-grooming splash test and an open field test (OFT) [Strekalova et al., Psychopharmacology (Berl). 2022, 239(3):663-693; Willner, P. Neurobiol Stress, 2017, 6:78-93]. In brief, C57BL/6J mice were subjected to a CVS protocol, consisting of 2 stressors per day for 35 days. Naive mice (not exposed to CVS) are used as a control for CVS-induced depression activity. Following the 35 days CVS, mice were treated with the “E559 polymorph” (FIG. 23) via intraperitoneal injection (IP) as follows: single dose after the last day of CVS (3 mg/kg) or 4 doses (1 mg/kg) applied every 48 hours starting on day 28 of CVS. Saline was used as the vehicle control. The splash test and OFT were performed as previously described in (Aguilar-Valles et al., Nature, 2021, 590, p315-319). […] FIG. 23B represents distance travelled in the open field by female mice treated with E559 polymorph. FIG. 23C represents time spend in the center of the open field of mice in FIG. 23B. […] Horizontal lines represent the mean±standard error of the mean (S.E.M.) and asterisks indicate statistical significances.

[5] = target: D1 dopamine receptor (Homo sapiens, UniProt P21728); test: Functional assay in HEK-293 cells (cAMP); format: cell-based; set-up: expressed in transfected cells; host or cells: HEK-293
Experimental: Neuro-receptor binding and functional effects of the “E559 polymorph” was examined by analyzing binding affinity [Ki (nM)], functional agonist activity [EC50 (nM)], and functional antagonist activity [IC50 (nM)] against a panel of key receptors in neurophysiological disorders. Binding and functional assays were performed at “E559 polymorph” concentrations of 0.0003, 0.003, 0.01, 0.03, 0.1, 0.3, 1, and 10 μM. In binding assays, cell membrane homogenates, expressing each receptor target, were incubated with the corresponding radio-ligand in absence or presence of several concentration of the “E559 polymorph” compound. The measurement of binding affinity of the “E559 polymorph” is represented in TABLE XIII by Ki (nM) which was calculated as percent inhibition of the binding of a radioactively labeled reference ligand at each receptor. […] Following incubation, the cells were lysed and the appropriate fluorescent probe (Ca2+ flux, cAMP, or IP1) were added for 60 minutes to measure the fluorescence transfer at the appropriate wavelength using a microplate reader. The cellular agonist effect (EC50) was calculated as a percent of control response to a known reference agonist and the cellular antagonist effect (IC50) was calculated as a percent inhibition of control reference agonist response for each receptor.

D1 dopamine receptor, sequence (P21728 whole entry): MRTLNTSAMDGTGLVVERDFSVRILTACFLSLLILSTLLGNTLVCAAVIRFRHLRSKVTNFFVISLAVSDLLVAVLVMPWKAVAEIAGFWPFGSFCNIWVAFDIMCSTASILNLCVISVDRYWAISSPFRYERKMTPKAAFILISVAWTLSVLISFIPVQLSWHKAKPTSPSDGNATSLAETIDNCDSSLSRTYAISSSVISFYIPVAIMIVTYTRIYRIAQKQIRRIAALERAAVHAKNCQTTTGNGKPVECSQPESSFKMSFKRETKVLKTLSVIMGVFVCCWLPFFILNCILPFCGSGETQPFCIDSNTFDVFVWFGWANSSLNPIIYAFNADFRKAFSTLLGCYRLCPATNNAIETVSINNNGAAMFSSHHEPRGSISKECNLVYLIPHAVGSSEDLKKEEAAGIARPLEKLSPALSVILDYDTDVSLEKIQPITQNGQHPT

CCN(CC)C(=O)[C@@H]1C=C2c3cccc4[nH]c(Br)c(c34)C[C@H]2N(C)C1 [E559, (5R, 8R)-2-Bromo-9,10-didehydro-N,N-diethyl-6-methylergoline-8-carboxamide hemi-D-tartrate] was tested, and the EC50 [1] was 0.051 µM, the IC50 [1] was greater than 10 µM and the EC50 [2] was greater than 10 µM. It also gave an IC50 [2] of 0.26 µM, an EC50 [3] of 3 µM and an IC50 [3] greater than 10 µM. The “CVS effect on time in center in OFT, 28 days after the last treatment” value ([4]; 4×1 mg/kg) was “remained reversed”, the “locomotion (total distance travelled) in open field, CVS mice” value ([4]; 4×1 mg/kg) was “without affecting locomotion” and the “time spent self-grooming in the splash test” value ([4]; female CVS mice) was “partially reversed this CVS-induced effect”. For the same compound, the “CVS induced decrease of time in center of open field” value ([4]; IP 4 doses of 1 mg/kg every 48 hours) was “fully reversed to the levels seen in the control”, the “CVS induced decrease of time in center of open field” value ([4]; IP single dose of 3 mg/kg) was “partially restored the effect of CVS” and the EC50 [5] was greater than 10 µM. For the same compound, the IC50 [5] was 0.82 µM.
